Data reported in ChEMBL document CHEMBL1132959, “Design of potent dicyclic (1-5/4-10) gonadotropin releasing hormone (GnRH) antagonists” (J Med Chem, 2000).
Bridge positions count the residues as written; N and C are the ends. Square brackets hold non-standard residues; d marks the D form. Peptide text beside a SMILES is read from it. dPhe(4-F) = N[C@H](Cc1ccc(F)cc1)C(=O)O; d2Nal = N[C@H](Cc1ccc2ccccc2c1)C(=O)O; ΔPro = O=C(O)[C@@H]1C=CCN1; Dap = NC[C@H](N)C(=O)O

Columns and labels:
[1] = target: T1, Gonadotropin-releasing hormone receptor (Rattus norvegicus, UniProt P30969); assay: Affinity for rat gonadotrophin releasing hormone (GnRH) receptor using HEK293 cells transfected with rat Gonadotropin-releasing hormone receptor; format: cell-based; conditions: hek293
T1 sequence (P30969 whole entry): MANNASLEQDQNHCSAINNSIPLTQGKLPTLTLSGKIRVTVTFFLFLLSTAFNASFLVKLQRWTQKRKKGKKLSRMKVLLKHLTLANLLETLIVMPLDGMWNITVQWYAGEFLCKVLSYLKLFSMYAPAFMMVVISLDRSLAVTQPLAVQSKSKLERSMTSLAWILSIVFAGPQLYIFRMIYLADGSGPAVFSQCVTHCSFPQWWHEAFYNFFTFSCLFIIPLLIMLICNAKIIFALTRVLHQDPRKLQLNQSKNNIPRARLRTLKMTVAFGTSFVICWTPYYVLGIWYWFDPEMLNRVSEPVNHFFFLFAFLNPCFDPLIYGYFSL

[2] = species on record: Rattus norvegicus; assay: Antiovulatory potency at 250 ug/rat expressed as rats ovulating by total no. of rats (1/5); format: functional
[3] = species on record: Rattus norvegicus; assay: Antiovulatory potency at 500 ug/rat expressed as rats ovulating by total no. of rats (5/9); format: functional
[4] = species on record: Rattus norvegicus; assay: Antiovulatory potency at 25 ug/rat expressed as rats ovulating by total no. of rats (0/3); format: functional
[5] = species on record: Rattus norvegicus; assay: Antiovulatory potency at 5 ug/rat expressed as rats ovulating by total no. of rats (2/8); format: functional
[6] = species on record: Rattus norvegicus; assay: Antiovulatory potency at 10 ug/rat expressed as rats ovulating by total no. of rats (1/6); format: functional
[7] = species on record: Rattus norvegicus; assay: Antiovulatory potency at 5 ug/rat expressed as rats ovulating by total no. of rats (1/8); format: functional
[8] = species on record: Rattus norvegicus; assay: Antiovulatory potency at 2.5 ug/rat expressed as rats ovulating by total no. of rats (0/5); format: functional
[9] = species on record: Rattus norvegicus; assay: Antiovulatory potency at 25 ug/rat expressed as rats ovulating by total no. of rats (7/8); format: functional
[10] = species on record: Rattus norvegicus; assay: Antiovulatory potency at 50 ug/rat expressed as rats ovulating by total no. of rats (0/6); format: functional
[11] = species on record: Rattus norvegicus; assay: Antiovulatory potency at 10 ug/rat expressed as rats ovulating by total no. of rats (5/6); format: functional
[12] = species on record: Rattus norvegicus; assay: Antiovulatory potency at 50 ug/rat expressed as rats ovulating by total no. of rats (3/3); format: functional
[13] = species on record: Rattus norvegicus; assay: Antiovulatory potency at 5 ug/rat expressed as rats ovulating by total no. of rats (2/3); format: functional
[14] = species on record: Rattus norvegicus; assay: Antiovulatory potency at 10 ug/rat expressed as rats ovulating by total no. of rats (0/5); format: functional
[15] = species on record: Rattus norvegicus; assay: Antiovulatory potency at 25 ug/rat expressed as rats ovulating by total no. of rats (2/4); format: functional
[16] = species on record: Rattus norvegicus; assay: Antiovulatory potency at 25 ug/rat expressed as rats ovulating by total no. of rats (4/8); format: functional
[17] = species on record: Rattus norvegicus; assay: Antiovulatory potency at 10 ug/rat expressed as rats ovulating by total no. of rats (4/4); format: functional
[18] = species on record: Rattus norvegicus; assay: Antiovulatory potency at 250 ug/rat expressed as rats ovulating by total no. of rats (7/7); format: functional
[19] = species on record: Rattus norvegicus; assay: Antiovulatory potency at 50 ug/rat expressed as rats ovulating by total no. of rats (0/5); format: functional
[20] = species on record: Rattus norvegicus; assay: Antiovulatory potency at 50 ug/rat expressed as rats ovulating by total no. of rats (2/5); format: functional
[21] = species on record: Rattus norvegicus; assay: Antiovulatory potency at 10 ug/rat expressed as rats ovulating by total no. of rats (3/3); format: functional
[22] = species on record: Rattus norvegicus; assay: Antiovulatory potency at 100 ug/rat expressed as rats ovulating by total no. of rats (0/3); format: functional
[23] = species on record: Rattus norvegicus; assay: Antiovulatory potency at 25 ug/rat expressed as rats ovulating by total no. of rats (3/6); format: functional
[24] = species on record: Rattus norvegicus; assay: Antiovulatory potency at 250 ug/rat expressed as rats ovulating by total no. of rats (3/6); format: functional
[25] = species on record: Rattus norvegicus; assay: Antiovulatory potency at 100 ug/rat expressed as rats ovulating by total no. of rats (2/6); format: functional
[26] = species on record: Rattus norvegicus; assay: Antiovulatory potency at 100 ug/rat expressed as rats ovulating by total no. of rats (7/12); format: functional
[27] = species on record: Rattus norvegicus; assay: Antiovulatory potency at 500 ug/rat expressed as rats ovulating by total no. of rats (4/10); format: functional
[28] = species on record: Rattus norvegicus; assay: Antiovulatory potency at 250 ug/rat expressed as rats ovulating by total no. of rats (4/4); format: functional
[29] = species on record: Rattus norvegicus; assay: Antiovulatory potency at 100 ug/rat expressed as rats ovulating by total no. of rats (4/7); format: functional
[30] = species on record: Rattus norvegicus; assay: Antiovulatory potency at 25 ug/rat expressed as rats ovulating by total no. of rats (4/4); format: functional
[31] = species on record: Rattus norvegicus; assay: Antiovulatory potency at 50 ug/rat expressed as rats ovulating by total no. of rats (4/8); format: functional
[32] = species on record: Rattus norvegicus; assay: Antiovulatory potency at 100 ug/rat expressed as rats ovulating by total no. of rats (0/8); format: functional
[33] = species on record: Rattus norvegicus; assay: Antiovulatory potency at 5 ug/rat expressed as rats ovulating by total no. of rats (4/10); format: functional
[34] = species on record: Rattus norvegicus; assay: Antiovulatory potency at 10 ug/rat expressed as rats ovulating by total no. of rats (0/10); format: functional

CC(=O)N[C@@H]1CC(=O)NC[C@@H]2NC(=O)[C@@H](CC(=O)NC[C@H](C(N)=O)NC(=O)[C@H]3CCCN3C(=O)[C@H](CCCN=C(N)N)NC(=O)[C@@H](CC(C)C)NC(=O)[C@@H](Cc3ccc4ccccc4c3)NC2=O)NC(=O)[C@@H](Cc2c[nH]c3ccccc23)NC(=O)[C@H](Cc2ccc(Cl)cc2)NC1=O
Ki [1]: 4.8 nM | Ovulating rats [2]: 1 | Ovulating rats [3]: 5

CC(=O)N[C@H](Cc1ccc2ccccc2c1)C(=O)N[C@H](Cc1ccc(F)cc1)C(=O)N[C@H](Cc1cccnc1)C(=O)N[C@H]1CC(=O)NC[C@@H](C(N)=O)NC(=O)[C@@H]2CCCN2C(=O)[C@@H]2CCNC(=O)CNC(=O)CC[C@H](NC1=O)C(=O)N[C@H](CCCN=C(N)N)C(=O)N[C@@H](CC(C)C)C(=O)N2
Ovulating rats [4]: 0 | Ovulating rats [5]: 2 | Ovulating rats [6]: 1

CC(=O)N[C@@H]1CC(=O)NCCC(=O)NCC[C@H]2NC(=O)[C@@H](CC(=O)NC[C@H](C(N)=O)NC(=O)[C@H]3CCCN3C(=O)[C@H](CCCN=C(N)N)NC(=O)[C@@H](CC(C)C)NC(=O)[C@@H](Cc3ccc4ccccc4c3)NC2=O)NC(=O)[C@@H](Cc2c[nH]c3ccccc23)NC(=O)[C@H](Cc2ccc(Cl)cc2)NC1=O
Ki [1]: 0.15 nM | Ovulating rats [7]: 1 | Ovulating rats [8]: 0

CC(=O)N[C@@H]1CCC(=O)NCC(=O)NCCC[C@H]2NC(=O)[C@@H](CC(=O)NC[C@H](C(N)=O)NC(=O)[C@H]3CCCN3C(=O)[C@H](CCCN=C(N)N)NC(=O)[C@@H](CC(C)C)NC(=O)[C@@H](Cc3ccc4ccccc4c3)NC2=O)NC(=O)[C@@H](Cc2c[nH]c3ccccc23)NC(=O)[C@H](Cc2ccc(Cl)cc2)NC1=O
Ki [1]: 1.1 nM | Ovulating rats [9]: 7 | Ovulating rats [10]: 0 | Ovulating rats [11]: 5

CC(=O)N[C@@H]1CCC(=O)NCC(=O)NCC[C@H]2NC(=O)[C@@H](CC(=O)NC[C@H](C(N)=O)NC(=O)[C@H]3CCCN3C(=O)[C@H](CCCN=C(N)N)NC(=O)[C@@H](CC(C)C)NC(=O)[C@@H](CCCN=C(N)N)NC2=O)NC(=O)[C@@H](Cc2c[nH]c3ccccc23)NC(=O)[C@H](Cc2ccc(Cl)cc2)NC1=O
Ovulating rats [12]: 3 | Ki [1]: 17 nM | Ovulating rats [13]: 2

CC(=O)N[C@@H]1CCC(=O)N[C@H](C)C(=O)NCC[C@H]2NC(=O)[C@@H](CC(=O)NC[C@H](C(N)=O)NC(=O)[C@H]3CCCN3C(=O)[C@H](CCCN=C(N)N)NC(=O)[C@@H](CC(C)C)NC(=O)[C@@H](Cc3ccc4ccccc4c3)NC2=O)NC(=O)[C@@H](Cc2c[nH]c3ccccc23)NC(=O)[C@H](Cc2ccc(Cl)cc2)NC1=O
Ki [1]: 0.22 nM | Ovulating rats [14]: 0 | Ovulating rats [15]: 2

CC(=O)N[C@@H]1CCC(=O)NCCC[C@H]2NC(=O)[C@@H](CC(=O)NC[C@H](C(N)=O)NC(=O)[C@H]3CCCN3C(=O)[C@H](CCCN=C(N)N)NC(=O)[C@@H](CC(C)C)NC(=O)[C@@H](Cc3ccc4ccccc4c3)NC2=O)NC(=O)[C@@H](Cc2c[nH]c3ccccc23)NC(=O)[C@H](Cc2ccc(Cl)cc2)NC1=O
Ki [1]: 0.86 nM | Ovulating rats [16]: 4 | Ovulating rats [17]: 4

CC(=O)N[C@H]1CCC(=O)NCCCC[C@@H]2NC(=O)[C@H](CC(C)C)NC(=O)[C@@H](Cc3ccc4ccccc4c3)NC(=O)[C@H](CCCN=C(N)N)NC(=O)[C@H](CC(=O)NC[C@H](C(N)=O)NC(=O)[C@@H]3CCCN3C2=O)NC(=O)[C@@H](Cc2cccnc2)NC(=O)[C@H](Cc2ccc(Cl)cc2)NC1=O
Ki [1]: 1.1 nM | Ovulating rats [18]: 7 | Ovulating rats [19]: 0

CC(=O)N[C@@H]1CC(=O)NCC(=O)NCCC[C@H]2NC(=O)[C@@H](CC(=O)NC[C@H](C(N)=O)NC(=O)[C@H]3CCCN3C(=O)[C@H](CCCN=C(N)N)NC(=O)[C@@H](CC(C)C)NC(=O)[C@@H](Cc3ccc4ccccc4c3)NC2=O)NC(=O)[C@@H](Cc2c[nH]c3ccccc23)NC(=O)[C@H](Cc2ccc(Cl)cc2)NC1=O
Ki [1]: 0.31 nM | Ovulating rats [20]: 2 | Ovulating rats [21]: 3 | Ovulating rats [22]: 0 | Ovulating rats [23]: 3

CC(=O)N[C@@H]1CCC(=O)NCCCC[C@@H]2NC(=O)[C@H](CC(C)C)NC(=O)[C@@H](Cc3ccc4ccccc4c3)NC(=O)[C@H](CCCN=C(N)N)NC(=O)[C@H](CC(=O)NC[C@H](C(N)=O)NC(=O)[C@@H]3CCCN3C2=O)NC(=O)[C@@H](Cc2cccnc2)NC(=O)[C@H](Cc2ccc(Cl)cc2)NC1=O
Ki [1]: 1.8 nM | Ovulating rats [24]: 3 | Ovulating rats [25]: 2

CC(=O)N[C@@H]1CSSC[C@H]2NC(=O)[C@@H](CC(=O)NC[C@H](C(N)=O)NC(=O)[C@H]3CCCN3C(=O)[C@H](CCCN=C(N)N)NC(=O)[C@@H](CC(C)C)NC(=O)[C@H](Cc3ccc4ccccc4c3)NC2=O)NC(=O)[C@@H](Cc2c[nH]c3ccccc23)NC(=O)[C@H](Cc2ccc(Cl)cc2)NC1=O
Ki [1]: 5.7 nM | Ovulating rats [26]: 7

CC(=O)N[C@H]1CSSC[C@H]2NC(=O)[C@@H](CC(=O)NC[C@H](C(N)=O)NC(=O)[C@H]3CCCN3C(=O)[C@H](CCCN=C(N)N)NC(=O)[C@@H](CC(C)C)NC(=O)[C@@H](Cc3ccc4ccccc4c3)NC2=O)NC(=O)[C@@H](Cc2c[nH]c3ccccc23)NC(=O)[C@H](Cc2ccc(Cl)cc2)NC1=O
Ki [1]: 0.25 nM | Ovulating rats [27]: 4

CC(=O)N[C@H](Cc1ccc2ccccc2c1)C(=O)N[C@H](Cc1ccc(Cl)cc1)C(=O)N[C@@H]1CC(=O)NCCCC[C@@H]2NC(=O)[C@H](CC(C)C)NC(=O)[C@@H](Cc3ccc4ccccc4c3)NC(=O)[C@H](CCCN=C(N)N)NC(=O)[C@H](CC(=O)NC[C@@H](C(N)=O)NC(=O)[C@@H]3CCCN3C2=O)NC1=O
Ovulating rats [28]: 4 | Ovulating rats [29]: 4

CC(=O)N[C@H]1CC(=O)NCC(=O)NCC[C@H]2NC(=O)[C@H](CC(=O)NC[C@@H](C(N)=O)NC(=O)[C@@H]3CCCN3C(=O)[C@H](CCCN=C(N)N)NC(=O)[C@H](CC(C)C)NC(=O)[C@@H](Cc3ccc4ccccc4c3)NC2=O)NC(=O)[C@@H](Cc2c[nH]c3ccccc23)NC(=O)[C@@H](Cc2ccc(Cl)cc2)NC1=O
Ovulating rats [30]: 4 | Ovulating rats [31]: 4 | Ovulating rats [32]: 0

CC(=O)N1CC=C[C@H]1C(=O)N[C@H](Cc1ccc(F)cc1)C(=O)N[C@H](Cc1c[nH]c2ccccc12)C(=O)N[C@H]1CC(=O)NC[C@@H](C(N)=O)NC(=O)[C@@H]2CCCN2C(=O)[C@H](CCCN=C(N)N)NC(=O)[C@H](CC(C)C)NC(=O)[C@@H](Cc2ccc3ccccc3c2)NC(=O)[C@H](Cc2ccc(O)cc2)NC1=O (Ac-[ΔPro][dPhe(4-F)][dW]DY[d2Nal]LRP[Dap]-NH2; lactam 4-10)
Ovulating rats [33]: 4 | Ovulating rats [34]: 0
